In patent US20060160895A1, “Anti-cancer agents” (priority 2004, published 2006):

Assays:
Format in all cases: cell-based, human
[1] = tested on: gastric adenocarcinoma (AGS); test: in vitro MTT proliferation assay, AGS cells; conditions: 48 hrs; for inhibition of cancer cell line AGS: 0.3-100 μg/ml, absorbance at 492 nm; for IC50 values for AGS: calculated with XLfit
Method: (§1) An in vitro assay was conducted to evaluate the efficacy of LuA, LuB, and LuE in inhibiting proliferation of cancer cells.
(§2) Four human tumor cell lines, i.e., gastric adenocarcinoma (AGS, BGC-823), lung carcinoma (A549), and lung adenocarcinoma (SPC-A-1), were purchased from the Cell Bank of Shanghai Institute of Cell Biology, Chinese Academy of Sciences, and cultured in Iscove's Modified Dulbecco's Medium (IMDM) containing 10% fetal bovine serum (FBS) in an incubator at 37° C. under 5% CO2. Cells of 70˜80% confluence were trypsinized, resuspended in IMDM medium containing 10% FBS at 1×10^5 cells/ml, and seeded in 96-well plates (100 μl in each well). The plates were incubated at 37° C. under 5% CO2 overnight.
(§3) A DMSO solution containing LuA, LuB, or LuE was added to each “treatment” well. Efficacy of LuA, LuB, and LuE at six concentrations, 100, 30, 10, 3, 1, and 0.3 μg/ml, was studied. Wells, to each of which a DMSO solution (containing no LuA, LuB, or LuE) was added, were used as “control;” and wells, to each of which no LuA, LuB, LuE, or DMSO was added, were used as “background.” The plates were then incubated at 37° C. under 5% CO2 for 48 hrs.
(§4) 10 μl of 3-(4,5-dimethyl-thiazol-2-yl)-2,5-diphenyl tetrazolium bromide in phosphate buffered saline (PBS), 5 mg/ml, was added to all wells except the background wells. After incubation for 3-4 hrs, the cells were collected by spinning at 1000 rpm for 15 minutes, followed by removal of the supernatants by vacuum. The cells thus collected in each well, after wash with 150 μl of PBS, were placed in 150 μl of DMSO.
(§5) The plates were then placed on a shaker at 150 rpm for 15 minutes to dissolve the precipitate in each well. Absorbance was measured at 492 nm using a microplate reader.
(§6) Inhibition ratios for cells treated with LuA, LuB, and LuE, respectively, were calculated according to the following equation: [formula]
(§7) A software program, XLfit (ID Business Solutions), was used to calculate the concentrations of LuA, LuB, and LuE required to reach 10, 20, . . . 90% inhibition (i.e., IC10, IC20, . . . IC90) for each tested tumor cell line.

[2] = tested on: gastric adenocarcinoma (BGC-823); test: in vitro MTT proliferation assay, BGC-823 cells; conditions: 48 hrs; for inhibition of cancer cell line BGC-823: 0.3-100 μg/ml, absorbance at 492 nm; for IC50 values for BGC-823: calculated with XLfit
Method: as §1, §2, §3, §4, §5, §6, §7

[3] = tested on: lung carcinoma (A549); test: in vitro MTT proliferation assay, A549 cells; conditions: 48 hrs; for inhibition of cancer cell line A549: 0.3-100 μg/ml, absorbance at 492 nm; for IC50 values for A549: calculated with XLfit
Method: as §1, §2, §3, §4, §5, §6, §7

[4] = tested on: lung adenocarcinoma (SPC-A-1); test: in vitro MTT proliferation assay, SPC-A-1 cells; conditions: 48 hrs, 0.3-100 μg/ml, absorbance at 492 nm
Method: as §1, §2, §3, §4, §5, §6, §7

| IC50 values for AGS [1] | IC50 values for BGC-823 [2] | IC50 values for A549 [3] | Structure (SMILES) | inhibition of cancer cell line AGS [1] | inhibition of cancer cell line BGC-823 [2] | inhibition of cancer cell line A549 [3] | inhibition of cancer cell line SPC-A-1 [4] |
| --- | --- | --- | --- | --- | --- | --- | --- |
| particularly low | particularly low | particularly low | C=C1C(=O)[C@]23C[C@H]1C[C@H](OC(C)=O)[C@H]2[C@]1(C)C[C@H](OC(C)=O)[C@H](OC(C)=O)C(C)(C)[C@H]1[C@@H](OC(C)=O)[C@@H]3O [LuA, Lushanrubescensin A] | effectively inhibited | effectively inhibited | effectively inhibited | effectively inhibited |
| particularly low | particularly low | particularly low | C=C1C(=O)[C@]23C[C@H]1C[C@H](O)[C@H]2[C@]1(C)C[C@H](OC(C)=O)[C@H](OC(C)=O)C(C)(C)[C@H]1[C@@H](OC(C)=O)[C@@H]3O [LuB, Lushanrubescensin B] | effectively inhibited | effectively inhibited | effectively inhibited | effectively inhibited |
| – | – | – | C=C1C(=O)[C@]23C[C@H]1C[C@@H](O)[C@H]2[C@]1(C)C[C@H](OC(C)=O)[C@H](OC(C)=O)C(C)(C)[C@H]1[C@@H](OC(C)=O)[C@@H]3O [LuE, Lushanrubescensin E] | effectively inhibited | effectively inhibited | effectively inhibited | effectively inhibited |
